≈ marks a conversion by molar mass, not a printed value. Calls of active or inactive are those of the source. The calls are words filed in the database; no cut-off is given here.
Experiments:
[1] = tested on: [Candida] auris; assay: Antifungal activity against Candida auris MRL6057; assay type: functional; details: Candidozyma auris
[2] = tested on: [Candida] auris; assay: Antifungal activity against clinical strain Candida auris; assay type: functional; details: Candidozyma auris
[3] = tested on: [Candida] auris; assay: Induction of cell cycle arrest in Candida auris MRL6057 cells assessed as cell population at G2/M phase at 0.5xMIC measured by Muse cell analyzer; assay type: functional, Candidozyma auris
[4] = tested on: [Candida] auris; assay: Induction of cell cycle arrest in Candida auris MRL6057 cells assessed as cell population at S phase at MIC measured by Muse cell analyzer; assay type: functional, Candidozyma auris
[5] = tested on: [Candida] auris; assay: Induction of oxidative stress in Candida auris MRL6057 incubated for 2 hrs and assessed as upregulation of SOD4 mRNA expression measured by RT-qPCR analysis; assay type: functional, organism-based; details: Candidozyma auris
[6] = tested on: [Candida] auris; assay: Induction of oxidative stress in Candida auris MRL6057 incubated for 2 hrs assessed as decrease in GLR activity; assay type: functional, organism-based; details: Candidozyma auris
[7] = tested on: [Candida] auris; assay: Induction of cell cycle arrest in Candida auris MRL6057 cells assessed as cell population at G0/G1 phase at 0.5xMIC measured by Muse cell analyzer; assay type: functional, Candidozyma auris
[8] = tested on: [Candida] auris; assay: Induction of cell cycle arrest in Candida auris MRL6057 cells assessed as cell population at S phase at 0.5xMIC measured by Muse cell analyzer; assay type: functional, Candidozyma auris
[9] = tested on: [Candida] auris; assay: Induction of oxidative stress in Candida auris MRL6057 incubated for 2 hrs and assessed as downregulation of GST1 mRNA expression measured by RT-qPCR analysis; assay type: functional, organism-based; details: Candidozyma auris
[10] = tested on: [Candida] auris; assay: Induction of oxidative stress in Candida auris MRL6057 incubated for 2 hrs and assessed as upregulation of GPx3 mRNA expression measured by RT-qPCR analysis; assay type: functional, organism-based; details: Candidozyma auris
[11] = tested on: [Candida] auris; assay: Antifungal activity against Candida auris MRL6057 assessed as dead cells at 0.49 ug/ml; assay type: functional, Candidozyma auris; details: dose 0.49 µg/ml
[12] = tested on: [Candida] auris; assay: Antifungal activity against Candida auris MRL6057 assessed as dead cells at 0.98 ug/ml; assay type: functional, Candidozyma auris; details: dose 0.98 µg/ml
[13] = tested on: [Candida] auris; assay: Induction of oxidative stress in Candida auris MRL6057 incubated for 2 hrs assessed as increase in SOD activity; assay type: functional, organism-based; details: Candidozyma auris
[14] = tested on: Candida albicans; assay: Antifungal activity against Candida albicans assessed as dead cells; assay type: functional
[15] = tested on: [Candida] auris; assay: Induction of oxidative stress in Candida auris MRL6057 incubated for 2 hrs assessed as increase in GPx activity; assay type: functional, organism-based; details: Candidozyma auris
[16] = tested on: [Candida] auris; assay: Induction of cell cycle arrest in Candida auris MRL6057 cells assessed as cell population at G2/M phase at MIC measured by Muse cell analyzer; assay type: functional, Candidozyma auris
[17] = tested on: [Candida] auris; assay: Induction of cell cycle arrest in Candida auris MRL6057 cells assessed as cell population at G0/G1 phase at MIC measured by Muse cell analyzer; assay type: functional, Candidozyma auris
[18] = tested on: [Candida] auris; assay: Induction of oxidative stress in Candida auris MRL6057 incubated for 2 hrs and assessed as downregulation of GSHR mRNA expression measured by RT-qPCR analysis; assay type: functional, organism-based; details: Candidozyma auris
[19] = tested on: [Candida] auris; assay: Induction of oxidative stress in Candida auris MRL6057 incubated for 2 hrs and assessed as upregulation of CATA mRNA expression measured by RT-qPCR analysis; assay type: functional, organism-based; details: Candidozyma auris
[20] = tested on: [Candida] auris; assay: Induction of oxidative stress in Candida auris MRL6057 incubated for 2 hrs assessed as decrease in GST activity; assay type: functional, organism-based; details: Candidozyma auris
[21] = tested on: [Candida] auris; assay: Antifungal activity against Candida auris MRL6057 assessed as dead cells at 1.96 ug/ml; assay type: functional, Candidozyma auris; details: dose 1.96 µg/ml
[22] = tested on: [Candida] auris; assay: Induction of oxidative stress in Candida auris MRL6057 incubated for 2 hrs assessed as increase in CAT activity; assay type: functional, organism-based; details: Candidozyma auris
[23] = tested on: [Candida] auris; assay: Induction of oxidative stress in Candida auris MRL6057 incubated for 2 hrs and assessed as increase in LPO activity; assay type: functional, organism-based; details: Candidozyma auris

`C[C@@H]1[C@H](O)[C@@H](C)/C=C/C=C/C=C/C=C/C=C/C=C/C=C/[C@H](O[C@@H]2O[C@H](C)[C@@H](O)[C@H](N)[C@@H]2O)C[C@@H]2O[C@](O)(C[C@@H](O)C[C@@H](O)[C@H](O)CC[C@@H](O)C[C@@H](O)CC(=O)O[C@H]1C)C[C@H](O)[C@H]2C(=O)O` [AMPHOTERICIN B] was tested, and the MFC [1] was 8 µg/mL (≈ 8.66 µM), the MIC [1] was 4 µg/mL (≈ 4.33 µM) and the MIC [2] was no less than 2 µg/mL.

For `O=C(Cn1nnc(/C=C/c2ccccc2)n1)N/N=C/c1ccc([N+](=O)[O-])cc1`, the Activity [3] was 7.2%, the Activity [4] was 49.3% and the Activity [5] was “Active”. For the same molecule, the Activity [6] was “Active”, the Activity [7] was 48.2% and the MFC [1] was 1.96 µg/mL (≈ 5.19 µM). For the same molecule, the MIC [1] was 0.98 µg/mL (≈ 2.6 µM), the Activity [8] was 44.5% and the Activity [9] was “Active”. The Activity [10] was “Active”, the Activity [11] was 69.2% and the Activity [12] was 83.1%. For the same molecule, the Activity [13] was “Active”, the Activity [14] was 75% and the Activity [15] was “Active”. The Activity [16] was 48.3%, the Activity [17] was 2.3% and the Activity [18] was “Active”. For the same molecule, the Activity [19] was “Active”, the Activity [20] was “Active” and the Activity [21] was 99.9%. The Activity [22] was “Active” and the Activity [23] was “Active”.

Source: ChEMBL document CHEMBL5104163, “Modulation of key antioxidant enzymes and cell cycle arrest as a possible antifungal mode of action of cinnamaldehyde based azole derivative” (2022)
